Laboratory results: US5130327A, “Indole derivatives” (Consejo Superior de Investigaciones Cientificas, priority 1989, dated 1992)
Like-named read-outs stand apart in the source and are kept apart here.

What was measured:
[1] = molecular target: T1, Bovine Brain MAO A (Bos taurus, UniProt P21398); test: In vitro inhibition of MAO from bovine brain mitochondria, tyramine as substrate (form A); type: biochemical; details: pI50 = -log [I50], molar
T1 construct: in vitro activity of MAO from bovine brain mitochondria; from tissue; host or cells: bovine brain mitochondria
T1 sequence (P21398 1-527): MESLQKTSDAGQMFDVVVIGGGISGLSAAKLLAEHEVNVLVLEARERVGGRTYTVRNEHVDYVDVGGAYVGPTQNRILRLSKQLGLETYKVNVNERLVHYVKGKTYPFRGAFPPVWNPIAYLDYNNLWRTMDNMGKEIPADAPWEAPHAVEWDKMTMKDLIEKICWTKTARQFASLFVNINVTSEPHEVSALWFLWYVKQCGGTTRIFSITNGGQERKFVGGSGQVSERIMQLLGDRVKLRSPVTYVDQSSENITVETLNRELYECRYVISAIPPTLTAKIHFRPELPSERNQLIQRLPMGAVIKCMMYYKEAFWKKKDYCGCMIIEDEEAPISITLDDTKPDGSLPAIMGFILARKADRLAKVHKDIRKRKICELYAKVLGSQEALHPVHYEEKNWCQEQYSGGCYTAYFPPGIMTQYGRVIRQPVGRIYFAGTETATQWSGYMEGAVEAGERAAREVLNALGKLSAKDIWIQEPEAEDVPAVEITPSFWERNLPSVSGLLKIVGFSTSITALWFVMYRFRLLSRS
Source text: The following table illustrates the structure of particular compounds of the invention (1). It also gives specific pI50 values where pI50 =-log [I50 ] where [I50 ] is the molar concentration of test compound which inhibits 50% of the in vitro activity of MAO from bovine brain mitochondria using tyramine as substrate.

[2] = system: rat cerebral MAO A; test: Ex vivo inhibition of rat cerebral MAO A after single dosing; type: in vivo
Method: 2. "Ex vivo inhibition" of rat cerebral MAO A and B after single dosing.
This gives the degree of inhibition in vivo of both forms of the enzyme and variation of this inhibition with time after treatment with a single dose. […] Animals were sacrificed by decapitation 24 h. and 7 days after treatment and brains were removed and homogenized. Enzymatic activities determined in treated animals, were compared with the activities in control animals (100%).

[3] = system: brain, duodenum and liver MAO A; test: In vivo inhibition of MAO A of different tissues after chronic treatment; design: species or system rat; details: cerebral vs intestinal or hepatic
Method: (§1) 4. "In vivo" inhibition of MAO A and B of different tissues after chronic treatment.
(§2) In order to evaluate the effect of compounds in a chronic treatment, the inhibitory activity on brain, duodenum and liver MAO A and B has been studied "in vivo". Wistar male rats were treated at two dose levels, 0.1 and 0.25 mg/kg i.p. for 15 and 21 days. Control rats received similar amounts of saline solution.

[4] = system: brain, duodenum and liver MAO B; test: In vivo inhibition of MAO B of different tissues after chronic treatment; design: species or system rat
Method: as §1, §2

[5] = system: reuptake of 5-HT; test: Reuptake of 5-HT in vitro, crude synaptosomal preparation; type: biochemical, rat
Method: Influence on the reuptake of monoamines "in vitro" was also studied. The effect of the compounds on the reuptake of 5-HT noradrenaline and dopamine was studied using Wistar male rats (350±2.5 g). They were kept under controlled light and temperature conditions and fed "ad libitum" until killed. The animals were killed by decapitation and brains were frozen and stored at -20° C. prior to analysis. Brains were dissected on an ice-filled petri dish. The cortices for 5-HT and noradrenaline assay and striatum (including caudate nucleus, putamen and globus pallidus) for dopamine assay were immediately weighed and homogenized. […] All drugs used in the study were dissolved in the incubation medium in a concentration range 10^-4 to 10^-8 M and were preincubated with the crude synaptosomal preparation obtained from the treated brains, for 5 min. at 37° C. or 0° C. before the addition of the labelled substrate.

[6] = system: cerebral β-adrenergic receptors; test: Effects of chronic treatment on β receptors; type: in vivo; details: chronic administration in the rat
Method: (§3) Effects of chronic treatment on α2 -, β- and 5-HT2 receptors. The test compounds, at a dose of 10 mg/kg/day i.p., were administered for 21 days to Wistar male rats (250±2.4 g). After treatment the animals were killed, brains were dissected and cortices were scraped from the dorsal surface of the […]. ^3 H UK 14304, ^3 H Dihydroalprenalol and ^3 H Ketanserin were used as ligands in the binding studies.

[7] = system: α-adrenergic receptors; test: Effects of chronic treatment on α2 receptors; type: in vivo; details: chronic administration in the rat
Method: as §3

[8] = system: 5-HT receptors; test: Effects of chronic treatment on 5-HT2 receptors; type: in vivo; details: chronic administration in the rat
Method: as §3

[9] = Behavioural Despair (Porsolt's test); type: in vivo
Method: The pharmacological profile was carried out assessing the antidepressant activity with the following tests:
Behavioural Despair (Porsolt et al. Arch. Int. Pharmacodyn; 229:327-336, 1977),

[10] = Interaction with salbutamol-induced hypoactivity; type: in vivo
Source text: (§4) The action mechanism was studied in acute and chronic treatments on the interaction response with clonidine, salbutamol (Richard, J. Intern. J. Neuroscience, 9:17-19, 1979) and tetrabenazine (Pletscher, A.: An. N.Y. Aca. Sci. 80:1039-1045, 1959), and the response to the potentiation with L-dopa, L-tryptophan, tryptamine (Jalfre, M. et al., Arch. Int. Pharmacodyn, 159:194-221, 1982) and β-phenylethylamine (Ortmann, et al, Psychopharmacol. 84:22-27, 1984).

[11] = Antagonism of tetrabenazine effects (ptosis and catalepsy); type: in vivo; details: ptosis and catalepsy at 60 and 120 minutes after administration; read-out: ED50, antagonism of effects induced by tetrabenazine
Source text: as §4

[12] = Potentiation of L-tryptophan, L-dopa and tryptamine; details: in vivo
Source text: as §4

[13] = Potentiation of 5-HT; type: in vivo
[14] = Potentiation of β-phenylethylamine; type: in vivo
Source text: as §4

[15] = "Cheese effect" by tyramine potentiation; details: in vivo
Method: (§5) The secondary effects were studied mainly on the cardiovascular system, and the effects on the arterial pressure, heart rate and rhythm, P-R interval and isolated organ (rabbit aortic rings and isolated atria), were evaluated both after acute and chronic treatments. In the same way, the "cheese effect" was studied by means of the tyramine potentiation.

[16] = Secondary effects on the cardiovascular system; details: in vivo
Method: as §5

C#CCN(C)Cc1cc2cc(OC)ccc2n1C [(l), N-methyl-N-propargyl-2-(1-methyl-5-methoxy-indolyl)methylamine]
IC50 [1]: 8.91 nM
Persistence of MAO A inhibitory effect ([2]; dose increased (5 mg/kg)): observed even after 7 days
Onset of MAO A inhibitory effect ([2]; single dose (1 mg/kg)): reached soon after the administration of a single dose
MAO A inhibitory effect, comparison of tissues [3]: higher on cerebral MAO A than on intestinal or hepatic MAO A
Activity on hepatic MAO B ([4]; hepatic): very low activity
Effect on intestinal MAO B ([4]; intestinal): without any effect
Inhibition of the reuptake of 5-HT [5]: potent inhibitor
Potency as inhibitor of 5-HT reuptake relative to chlorimipramine or imipramine [5]: much higher
Number or affinity of cerebral β-adrenergic receptors [6]: does not modify
Modifications on α-adrenergic receptors [7]: not statistically significant
Modifications on 5-HT receptors [8]: not statistically significant
minimal effective dose ([9]; acute treatment, read-out: Porsolt's test MED, acute): 50 mg/kg
minimal effective dose ([9]; chronic treatment, read-out: Porsolt's test MED, chronic): 20 mg/kg
Persistence of activity in Porsolt's test ([9]; in vivo): at least 24 hours
Hypoactivity by salbutamol, acute treatment ([10]; acute treatment): not modifying it
Hypoactivity by salbutamol, chronic treatment ([10]; chronic treatment (14 days)): antagonized
ED50 [11]: < 6 mg/kg
Potentiation of effects of L-tryptophan, L-dopa and tryptamine [12]: confirm the MAO inhibitory activity
ED50 [13]: 0.34 mg/kg
ED50 [14]: 27 mg/kg
"Cheese effect" [15]: some "cheese effect"
Cardiovascular effects [16]: hypotensive and negative chronotrope
